Values of other authors as cited in PMC9851200, “Multiparameter phenotypic screening for endogenous TFEB and TFE3 translocation identifies novel chemical series modulating lysosome function” (Autophagy, 2022).

How the values were obtained:
Design in all cases: method as in original PKIS2 published data
[1] = biological target: T1, kinases (KINOMEscan panel) (Homo sapiens, UniProt P57058); details: kinase HUNK; Published KINOMEscan; ref original PKIS2 published data; cited from earlier work
T1 sequence (P57058 1-714): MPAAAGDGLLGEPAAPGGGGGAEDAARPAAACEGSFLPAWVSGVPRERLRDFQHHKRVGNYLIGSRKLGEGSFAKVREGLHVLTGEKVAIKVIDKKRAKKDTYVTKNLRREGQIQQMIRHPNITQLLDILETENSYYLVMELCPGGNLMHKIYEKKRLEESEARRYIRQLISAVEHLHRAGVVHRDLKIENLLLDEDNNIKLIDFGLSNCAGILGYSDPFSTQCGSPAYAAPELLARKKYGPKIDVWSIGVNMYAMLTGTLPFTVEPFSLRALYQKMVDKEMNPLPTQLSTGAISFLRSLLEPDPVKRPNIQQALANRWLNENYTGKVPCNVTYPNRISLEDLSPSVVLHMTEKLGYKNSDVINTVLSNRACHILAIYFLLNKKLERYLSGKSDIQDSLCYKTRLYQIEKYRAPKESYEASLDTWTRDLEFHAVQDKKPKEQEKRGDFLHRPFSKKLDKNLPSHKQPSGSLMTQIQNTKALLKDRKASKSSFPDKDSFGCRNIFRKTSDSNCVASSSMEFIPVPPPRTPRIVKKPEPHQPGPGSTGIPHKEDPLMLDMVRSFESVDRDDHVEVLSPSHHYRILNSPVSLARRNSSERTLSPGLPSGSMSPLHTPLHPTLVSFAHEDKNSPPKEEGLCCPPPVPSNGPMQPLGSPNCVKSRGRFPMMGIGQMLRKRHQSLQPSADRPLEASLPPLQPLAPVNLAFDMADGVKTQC

[2] = biological target: kinases (KINOMEscan panel) (Homo sapiens, UniProt Q13554); details: kinase CAMK2B; Published KINOMEscan; ref original PKIS2 published data; cited from earlier work
Sequence of kinases (KINOMEscan panel) (Homo sapiens, UniProt Q13554) (Q13554 whole entry): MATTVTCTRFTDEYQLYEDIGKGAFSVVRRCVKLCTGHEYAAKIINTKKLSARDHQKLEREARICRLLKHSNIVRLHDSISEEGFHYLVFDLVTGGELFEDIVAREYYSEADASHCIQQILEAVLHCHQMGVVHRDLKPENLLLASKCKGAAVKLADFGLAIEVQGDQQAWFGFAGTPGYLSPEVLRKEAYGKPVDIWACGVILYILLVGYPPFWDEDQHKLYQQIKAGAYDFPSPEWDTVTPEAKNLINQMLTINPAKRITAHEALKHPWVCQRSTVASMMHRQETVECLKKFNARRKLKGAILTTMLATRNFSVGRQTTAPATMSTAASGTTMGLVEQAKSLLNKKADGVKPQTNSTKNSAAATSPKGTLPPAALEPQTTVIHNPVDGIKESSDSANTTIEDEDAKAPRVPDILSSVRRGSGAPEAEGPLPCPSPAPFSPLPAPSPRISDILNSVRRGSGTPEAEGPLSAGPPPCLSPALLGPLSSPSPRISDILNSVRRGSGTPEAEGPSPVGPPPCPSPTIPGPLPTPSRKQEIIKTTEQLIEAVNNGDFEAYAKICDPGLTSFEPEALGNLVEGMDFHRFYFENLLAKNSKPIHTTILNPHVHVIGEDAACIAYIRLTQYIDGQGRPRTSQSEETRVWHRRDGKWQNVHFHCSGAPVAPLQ

[3] = biological target: T2, kinases (KINOMEscan panel) (Homo sapiens, UniProt Q56UN5); details: Published KINOMEscan; ref original PKIS2 published data; cited from earlier work
T2 sequence (Q56UN5 1-1328): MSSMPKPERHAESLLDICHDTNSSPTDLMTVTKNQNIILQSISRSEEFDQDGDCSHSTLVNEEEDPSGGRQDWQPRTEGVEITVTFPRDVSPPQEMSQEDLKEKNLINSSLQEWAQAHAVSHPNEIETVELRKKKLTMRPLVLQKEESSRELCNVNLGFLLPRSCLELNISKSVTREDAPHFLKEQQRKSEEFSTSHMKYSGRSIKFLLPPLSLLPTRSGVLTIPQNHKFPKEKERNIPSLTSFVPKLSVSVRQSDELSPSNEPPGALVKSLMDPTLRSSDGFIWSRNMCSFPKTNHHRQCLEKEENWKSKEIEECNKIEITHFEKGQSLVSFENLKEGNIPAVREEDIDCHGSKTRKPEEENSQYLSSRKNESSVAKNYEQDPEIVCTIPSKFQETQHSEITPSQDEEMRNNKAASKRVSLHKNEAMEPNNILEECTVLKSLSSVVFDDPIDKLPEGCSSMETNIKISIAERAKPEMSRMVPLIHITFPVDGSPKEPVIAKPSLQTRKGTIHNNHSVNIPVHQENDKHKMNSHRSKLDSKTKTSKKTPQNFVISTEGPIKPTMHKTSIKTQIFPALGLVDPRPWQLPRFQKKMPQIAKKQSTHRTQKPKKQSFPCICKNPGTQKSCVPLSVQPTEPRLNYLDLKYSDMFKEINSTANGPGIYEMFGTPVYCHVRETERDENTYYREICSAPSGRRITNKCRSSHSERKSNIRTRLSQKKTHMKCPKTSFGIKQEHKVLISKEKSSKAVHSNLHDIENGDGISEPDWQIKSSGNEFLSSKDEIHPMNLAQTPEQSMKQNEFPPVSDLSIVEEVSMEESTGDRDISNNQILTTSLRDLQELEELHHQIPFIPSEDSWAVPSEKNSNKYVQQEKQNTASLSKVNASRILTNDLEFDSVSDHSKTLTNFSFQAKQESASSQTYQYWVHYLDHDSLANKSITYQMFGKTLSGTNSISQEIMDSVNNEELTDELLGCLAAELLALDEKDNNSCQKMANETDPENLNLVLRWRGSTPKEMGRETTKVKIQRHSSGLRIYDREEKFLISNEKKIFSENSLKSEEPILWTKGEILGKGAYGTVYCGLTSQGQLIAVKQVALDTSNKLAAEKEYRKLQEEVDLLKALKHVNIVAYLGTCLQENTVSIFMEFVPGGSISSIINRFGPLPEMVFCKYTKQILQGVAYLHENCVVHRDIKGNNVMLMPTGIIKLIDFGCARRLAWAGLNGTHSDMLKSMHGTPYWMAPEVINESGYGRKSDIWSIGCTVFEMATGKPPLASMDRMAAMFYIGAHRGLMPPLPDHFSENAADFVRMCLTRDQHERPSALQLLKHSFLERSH

[4] = biological target: T3, kinases (KINOMEscan panel) (Homo sapiens, UniProt Q8TDC3); details: BRSK1; Published KINOMEscan; ref original PKIS2 published data; cited from earlier work
T3 sequence (Q8TDC3 1-778): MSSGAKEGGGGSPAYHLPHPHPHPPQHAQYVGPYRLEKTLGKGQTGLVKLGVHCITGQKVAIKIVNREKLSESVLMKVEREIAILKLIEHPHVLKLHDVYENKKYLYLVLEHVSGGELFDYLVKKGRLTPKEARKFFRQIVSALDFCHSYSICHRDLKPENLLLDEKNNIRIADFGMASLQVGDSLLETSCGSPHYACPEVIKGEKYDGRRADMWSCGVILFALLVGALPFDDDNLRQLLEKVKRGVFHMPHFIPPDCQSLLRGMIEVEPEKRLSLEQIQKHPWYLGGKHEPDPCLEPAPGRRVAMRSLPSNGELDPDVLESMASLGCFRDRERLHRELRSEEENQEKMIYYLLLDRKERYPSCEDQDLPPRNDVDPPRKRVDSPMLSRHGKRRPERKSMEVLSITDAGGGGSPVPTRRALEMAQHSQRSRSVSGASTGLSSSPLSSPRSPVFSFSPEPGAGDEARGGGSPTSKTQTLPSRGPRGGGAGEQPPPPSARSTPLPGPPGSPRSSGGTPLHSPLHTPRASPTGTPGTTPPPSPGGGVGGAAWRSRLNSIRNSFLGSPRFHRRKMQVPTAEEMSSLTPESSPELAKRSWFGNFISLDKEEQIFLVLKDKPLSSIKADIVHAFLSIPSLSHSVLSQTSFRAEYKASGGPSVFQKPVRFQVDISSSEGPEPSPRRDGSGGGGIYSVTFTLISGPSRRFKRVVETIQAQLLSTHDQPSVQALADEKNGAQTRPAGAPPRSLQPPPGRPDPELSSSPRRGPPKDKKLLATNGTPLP

Cc1cccc(-c2nc(Nc3ccncc3)c3ccccc3n2)n1 [NK215]
0: KINOMEscan HUNK [1] | KINOMEscan CAMK2B [2] | KINOMEscan MAP3K19 [3] | KINOMEscan BRSK1 [4]
